The nature of series [1]: Physical stability of the physical forms / conversion between forms. It is filed as physicochemical.
Series [2] in a line: Bioavailability of physical forms and compositions (general statement). The settings on record: in vivo.
Series [3] in a line: Comparison of bioavailability in dogs (compositions with polyvinylpyrrolidone and forms A, B and X). The settings on record: 20 mg tablet with polyvinylpyrrolidone. It is filed as in vivo. From the text: During each study period, blood samples were periodically obtained from each animal and the concentration of compound 1 determined.
Series [4] can be described thus: Acute toxicity study, rats. The settings on record: rat, in vivo. From the text: (§1) Acute toxicity studies have been conducted on compound 1 in order to obtain LD50 values.
A short description of series [5]: Recent clinical trials, oral administration to asthmatic patients. The class given is in vivo. The settings on record: administered orally to asthmatic patients. From the text:
This ability of compound 1 to be effective when administered orally is unusual and highly desirable.

A short description of series [6]: Acute toxicity study, mice. The settings on record: mouse, in vivo.
Description: as §1

Series [7] is described as follows: Solubility in water. The class given is physicochemical.

Where two headings read alike, the source gives them in different places. Some results are limits rather than exact numbers.

For orientation: LD50 means the dose at which mortality reaches 50%.

`COc1cc(C(=O)NS(=O)(=O)c2ccccc2C)ccc1Cc1cn(C)c2ccc(NC(=O)OC3CCCC3)cc12` [forms B]: in series [1], the physical stability result is recorded as “physically stable”. Also, the bioavailability result in series [2] is “relatively poor bioavailability”.
Turning to `COc1cc(C(=O)NS(=O)(=O)c2ccccc2C)ccc1Cc1cn(C)c2ccc(NC(=O)OC3CCCC3)cc12` [Form A], the “conversion of form A into form B” value in series [1] (in compositions, high relative humidity and elevated temperatures) is given as “conversion of form A into form B has been found to occur”. Besides, in series [1] (in the compositions according to the invention), the “stability of form A in the compositions” value was “acceptably stable”. In series [1] (in the presence of water), the “conversion into form B” value was “tends to convert into form B”. In addition, in series [2], the bioavailability entry is on record as “relatively good bioavailability”. Moreover, in series [3], the Area under curve came to 4028 ng·h/mL and the Maximum concentration was 1.004 µg/mL. Further, the Half-life in series [3] (dog, blood, po, 20 mg, read-out: Half-life (converted)) was 5.4 h.
Take `COc1cc(C(=O)NS(=O)(=O)c2ccccc2C)ccc1Cc1cn(C)c2ccc(NC(=O)OC3CCCC3)cc12` [Form B, N-[4-[5-(cyclopentyloxycarbonyl)amino-l-methylindol-3-yl-methyl]-3-methoxybenzoyl]-2-methylbenzenesulphonamide]: in series [1], the “temperature above which form B loses water” value was “above 60 °C”. In series [3], this molecule yielded an Area under curve of 773 ng·h/mL, a Half-life of 3.524 h and a Maximum concentration of 0.105 µg/mL.
With `COc1cc(C(=O)NS(=O)(=O)c2ccccc2C)ccc1Cc1cn(C)c2ccc(NC(=O)OC3CCCC3)cc12` [Compound 1, N-[4-[5-(cyclopentyloxycarbonyl)amino-l-methylindol-3-ylmethyl]-3-methoxybenzoyl]-2-methylbenzenesulphonamide], the LD50 in series [4] and in series [6] was greater than 500 mg/kg in each case. Besides, the “effectiveness in the treatment of asthma” value in series [5] is listed as “effective”. Besides, in series [7], the solubility in water entry is listed as “relatively poor solubility”.
Turning to `COc1cc(C(=O)NS(=O)(=O)c2ccccc2C)ccc1Cc1cn(C)c2ccc(NC(=O)OC3CCCC3)cc12` [Form X], the physical stability result in series [1] is “physically stable”. For the same molecule, the bioavailability entry in series [2] is on record as “relatively poor bioavailability”. For the same molecule, in series [3], the Area under curve came out at 1307 ng·h/mL, the Half-life came to 3.590 h and the Maximum concentration worked out at 0.314 µg/mL.

For the origin of these results see patent US5319097A, “Pharmaceutical agents” (Imperial Chemical Industries PLC, priority 1990, dated 1994).
